Test results taken from the supplement of paper PMC10307832.

How the values were obtained:
Assay in all cases: relative viability (nuclei count vs DMSO), 5 days (fraction); higher = more cells survive
[1] = compound: C1/C(=C\C2=CC=CS2)/C(=O)/C(=C/C3=CC=CS3)/C1 + COc1cccc2cc(-c3nc([C@H]4CC[C@H](C(=O)O)CC4)n4ncnc(N)c34)[nH]c12 [OSI-027] (partner 0.5 µM)
Method in brief: (§1)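 Dosing by pin tool came one day after lung cancer cell lines were seeded in 1536-well plates, using either one drug or a fixed anchor-drug dose plus five library-drug doses (not always all listed) in √10 steps. After 5 days, nuclei were counted on 4× images. Relative viability is treated-well nuclei count divided by vehicle-well nuclei count, and values are medians of duplicate plates.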

[2] = compound: C1=CC(=CC=C1C2=CC(=C(S2)NC(=O)N)C(=O)N)F [TPCA-1] + Cc1cc(Nc2cc(N3CCN(C)CC3)nc(Sc3ccc(NC(=O)C4CC4)cc3)n2)n[nH]1 [Tozasertib] (partner 0.1 µM)
Method in brief: as §1

[3] = compound: C[C@]12O[C@H](C[C@]1(O)CO)n1c3ccccc3c3c4c(c5c6ccccc6n2c5c31)CNC4=O [Lestaurtinib] + C[C@@H](Oc1cc(-c2cnn(C3CCNCC3)c2)cnc1N)c1c(Cl)ccc(F)c1Cl [Crizotinib] (partner 1 µM)
Method in brief: as §1

[4] = compound: C[C@]12O[C@H](C[C@]1(O)CO)n1c3ccccc3c3c4c(c5c6ccccc6n2c5c31)CNC4=O [Lestaurtinib] + O=C(CCCCCCC(=O)Nc1ccccc1)NO [Vorinostat] (partner 1 µM)
Method in brief: as §1

Row | Cell Line | relative viability ([1]; first compound 0.2 µM) | relative viability ([1]; first compound 0.6325 µM) | relative viability ([1]; first compound 2 µM) | relative viability ([1]; first compound 6.325 µM) | relative viability ([1]; first compound 20 µM) | relative viability ([2]; first compound 0.04 µM) | relative viability ([2]; first compound 0.1265 µM) | relative viability ([2]; first compound 0.4 µM) | relative viability ([2]; first compound 1.265 µM) | relative viability ([2]; first compound 4 µM) | relative viability ([3]; first compound 0.005 µM) | relative viability ([3]; first compound 0.01581 µM) | relative viability ([3]; first compound 0.05 µM) | relative viability ([3]; first compound 0.1581 µM) | relative viability ([3]; first compound 0.5 µM) | relative viability ([4]; first compound 0.005 µM) | relative viability ([4]; first compound 0.01581 µM) | relative viability ([4]; first compound 0.05 µM) | relative viability ([4]; first compound 0.1581 µM) | relative viability ([4]; first compound 0.5 µM)
1 | EKVX | 0.679 | 0.673 | 0.717 | 0.615 | 0.646 | 0.387 | 0.332 | 0.428 | 0.354 | 0.284 | 0.855 | 1.11 | 0.945 | 0.892 | 0.551 | 0.744 | 0.742 | 0.765 | 0.578 | 0.368
2 | ABC-1 | 0.645 | 0.583 | 0.647 | 0.426 | 0.498 | 0.153 | 0.199 | 0.137 | 0.163 | 0.142 | 1.15 | 1.58 | 0.92 | 0.882 | 0.26 | 1.02 | 1.2 | 1.03 | 0.887 | 0.329
3 | NCI-H520 | 0.265 | 0.269 | 0.295 | 0.306 | 0.244 | 0.445 | 0.395 | 0.448 | 0.498 | 0.319 | 0.653 | 0.687 | 0.332 | 0.42 | 0.344 | 0.68 | 0.675 | 0.632 | 0.371 | 0.211
4 | LCLC-97TM1 | 0.503 | 0.605 | 0.627 | 0.428 | 0.486 | 0.242 | 0.261 | 0.223 | 0.185 | 0.117 | 0.382 | 0.293 | 0.241 | 0.259 | 0.149 | – | 0.744 | 0.389 | 0.187 | 0.155
5 | NCI-H2170 | 0.713 | 0.728 | 0.77 | 0.416 | 0.785 | 0.731 | 0.644 | 0.718 | 0.66 | 0.387 | 1.05 | 1.06 | 0.68 | 0.924 | 0.292 | 0.745 | 0.69 | 0.536 | 0.521 | 0.199
